# From patent publication US20180256570A1, “TOPICAL FORMULATIONS” (IGNYTA, INC., priority 2015, published 2018)
# Key:
# [1] = Human cadaver skin permeability assay, Franz diffusion cells (flux, Papp)
# Procedure: Static, vertical glass Franz diffusion cells were used for the permeability assay.
# The dosing solution with control compounds (atenolol and testosterone, 100 μM each) was prepared in PBS buffer at pH 7.4 immediately prior to the start of the permeability experiments. The skin was kept frozen at −80° C. until the time of the study. The skin was thawed at room temperature and cut to appropriate size (˜2×2 cm). The thickness of each piece was measured and they were grouped based on thickness to ensure that the average thickness was similar across groups. Tissue was mounted in the Franz cell diffusion chamber and clamped between the donor and receiver chambers. The exposed surface area of the Franz cell diffusion chamber was 1.77 cm^2. The receiver compartment was filled with 8 mL PBS at pH 7.4 with 1% Oleth 20 for all test groups, or PBS at pH 7.4 for the control group. The reservoir also contained a magnetic stir bar, stirring at 400 RPM to ensure homogeneity of the reservoir contents. […]
# Each formulated test compound (35.4 μL by volume) was dispensed into the donor chamber using the reverse pipetting technique, after warming the cream in a water bath at 37° C. […] Each formulation was also analyzed to verify the concentration of the test compound. […]
# [2] = Solubility in IPA/DMSO and IPA/water/DMSO solutions; assay type: physicochemical
# [3] = Solubility in common topical excipients and solvent mixtures; assay type: physicochemical
# [4] = Stress testing with pure excipients (adduct formation); assay type: physicochemical
# Procedure: Stress testing with pure excipients was also conducted.
# [5] = Accumulation in epidermis and dermis of human skin after permeability assay; assay type: in vitro ADME
# Source text: All chambers were covered to minimize evaporation.
# The concentration of the test compounds is expressed as the amount (μg) normalized by the tissue weight of each layer (g).
smiles,measurement,setting,value
C[C@]12CC[C@H]3[C@@H](CCC4=CC(=O)CC[C@@]43C)[C@@H]1CC[C@@H]2O [testosterone],ratio of testosterone to atenolol Papp,"[1]; control compounds, 100 μM each in PBS pH 7.4",greater than 2
CN(C(=O)c1ccc(F)cc1C(F)(F)F)C1CCN(c2nnc(-c3ccnn3C)c3ccccc23)CC1 [4-fluoro-N-methyl-N-(1-(4-(1-methyl-1H-pyrazol-5-yl)phthalazin-1-yl)piperidin-4-yl)-2-(trifluoromethyl)benzamide],solubility in IPA/DMSO solutions,"[2]; above 20% DMSO, increasing DMSO, absence of water",increased
same,solubility in IPA/water/DMSO solutions,"[2]; as percentage of water increased (5%, 10%, 20% or 30% water)",less solubility
same,"Solubility in cosolvent, aqueous and lipophilic mixtures",[3]; Table 2 (not given),solubility is highest in ethanol/water mixtures
same,Solubility,[3]; solvent DMSO,27.65 mg/g
same,Solubility,[3]; solvent EtOH,13.66 mg/g
same,Solubility,[3]; solvent EtOH-Water (1:1) v/v,2.51 mg/g
same,Solubility,[3]; solvent EtOH-Water (3:1) v/v,18.76 mg/g
same,Solubility,[3]; solvent IPA-Water (3:1) v/v,18.73 mg/g
same,Solubility,[3]; solvent Isopropyl alcohol,5.15 mg/g
same,Solubility,[3]; solvent NMP,107.02 mg/g
same,adduct formation,"[4]; excipients containing unhindered hydroxyl groups (ethanol, benzyl alcohol, Transcutol)",Adducts were observed
same,adduct formation,[4]; isopropyl alcohol,no adduct was observed
Cc1c(C(=O)Nc2ccc(N3C[C@@H](C)O[C@@H](C)C3)nc2)cccc1-c1ccc(OC(F)(F)F)cc1 [LDE225],"flux, comparison between formulations",[1]; human cadaver skin,tended to be lower than that of Formulation A2
same,"accumulation in dermis, comparison",[5],significantly less
same,"accumulation in epidermis, comparison",[5],significantly less
